Measurements reported in paper PMC10799292, “The Role of β-Defensin 1 Against Porphyromonas gingivalis Lipopolysaccharide-Mediated Inflammation in the THP-1 Cell Line” (Cureus, 2023).
No end group written: not given here.

Columns and labels:
RAW264.7 cells = details: stimulated with LPS; cited from earlier work
Text: (§1) One of the primary virulence factors of periodontitis, Pg-LPS, targets TLR4, which activates the NF-kB signaling pathway and triggers the secretion of inflammatory cytokines such as TNFα, IL-6, and chemokines, recruiting monocytes/macrophages to the site of infection. […] Cecropin A, a novel 37-residue cecropin-like antimicrobial ...

phagocytosis = details: via its effect on the cytoskeletal network; cited from earlier work
Text: Two important functions of macrophages are to eliminate pathogens through phagocytosis and apoptosis of inflammatory cells and their subsequent clearance (efferocytosis). The present study analyzed the role of AMP, β-defensin 1, in Pg-LPS-stimulated THP-1 differentiated macrophage cells.

[1] = test system: THP-1 differentiated macrophage cell line; experiment: Cytotoxicity evaluation of Pg-LPS by MTT method; type: cell-based, human; details: 24 h, 0.25-4 µg/mL
Description: The THP-1 cell line was cultured in DMEM and supplemented with 10% FBS, sodium bicarbonate, L-glutamine, and an antibiotic solution containing penicillin (100 U/mL), amphotericin B (2.5 µg/mL), and streptomycin (100 µg/mL). The cells were maintained in a 5% humidified CO2 incubator (NBS Eppendorf, Germany) at 37°C. To induce differentiation into macrophages, the THP-1 cell line was treated with 25 ng/mL phorbol 12-myristate 13-acetate (PMA) (cat. 91585, Sigma-Aldrich, USA) and incubated for 48 hours. Following incubation, the cells were seeded in a 96-well culture plate at a density of 5x10^4 cells/well and incubated for 24 hours in a humidified 5% CO2 incubator at 37°C.
After incubation of 24 hours, triplicate additions of Pg-LPS in various concentrations (0.25 µg, 0.5 µg, 1 µg, 2 µg, and 4 µg/mL) were done appropriately. […] The inhibitory concentration (IC50) value of Pg-LPS was determined by the ED50 software.
Inverted phase contrast microscopy (IPCM) using an Olympus CKX41 microscope (Olympus, Japan) equipped with an Optika Pro5 CCD camera (Optika, Italy) was utilized to directly observe the cells. Cell viability was determined using the MTT (3-(4,5-Dimethylthiazol-2-yl)-2,5-diphenyltetrazolium bromide) assay (Sigma, M-5655). […] The absorbance of this colored solution can be quantified by measuring at approximately 570 nm using a spectrophotometer. […]

THP-1 cells [2] = experiment: Intracellular ROS generation, DCFDA assay; type: cell-based, human; details: Pg-LPS 1 µg/mL alone; DCFDA 30 min, ex 470 nm, em 635 nm; untreated control 2379
Description: Untreated control and Pg-LPS treated wells were also maintained. The cells were washed with PBS, and 50 µl of Dichlorodihydrofluorescein diacetate (DCFDA) was added, followed by incubation for 30 minutes. After incubation, excess dye was removed with PBS, and fluorescence was observed using a fluorescent microscope (Olympus CKX41 with Optika Pro5 CCD camera) and quantified with a fluorimeter at 470 nm excitation and emission at […] (Qubit 3.0, Life Technologies, USA), displaying the results in arbitrary units (AU).
The effect of β-defensin 1 on ROS generation in THP-1 cells stimulated with Pg-LPS was studied. DCFDA, a fluorogenic dye, measures hydroxyl, peroxyl, and other ROS activities within the cell. After entering the cell, DCFDA is deacetylated by cellular esterases into a non-fluorescent compound. This nonfluorescent chemical is then oxidized by ROS into […] (DCF), which, upon excitation with a blue filter, emits green fluorescence. When THP-1 cells were stimulated with Pg-LPS, there was a considerable increase in fluorescence, which decreased upon treatment with β-defensin 1, as shown in Figure 7 and Table 2.

THP-1 cells [3] = experiment: Cell cycle distribution by flow cytometry; type: cell-based, human; details: Pg-LPS alone, compared to untreated control cells
Description: Untreated control and Pg-LPS stimulated cells were also maintained. The MUSE Cell Cycle Kit was added, and the manufacturer's instructions were followed.

THP-1 cells [4] = experiment: Apoptosis by flow cytometry (Annexin V & Dead Cell); type: cell-based, human; details: Pg-LPS 1 µg/mL alone
Description: Untreated control and Pg-LPS treated wells were also maintained. To the tubes, 100 μL of the Muse™ Annexin V & Dead Cell Reagents were added separately. The tubes were completely mixed by pipetting up and down or spinning at a medium speed for three to five seconds, followed by 20 minutes of incubation in the dark at room temperature. The cells were examined with a Flow Cytometer, gated against untreated control cells, and evaluated for apoptosis with the Muse FCS 3.0 software.
The Muse Annexin V & Dead Cell Kit is a method to analyze cells in various stages of apoptosis, where fluorescently labeled Annexin V binds to phosphatidylserine (PS), which translocates to the outer surface of the cell membrane upon the onset of apoptosis. 7-AAD is excluded from live and healthy cells and permeates late-stage apoptotic and dead cells. […] The result is depicted in Figure 9.

[5] = directly interacting with LPS; cited from earlier work
Text: as §1

endothelial cells = details: cited from earlier work
Text: as §1

For “Cecropin A: a novel 37-residue cecropin-like antimicrobial peptide isolated from a cecropia moth (KWKLFKKIEKVGQNIRDGIIKAGPAVAVVGQATQIAK; ends and bridges not checked; UniProt P01507 27-63, looked up)”, the anti-inflammatory activities (RAW264.7 cells) is given as “showed anti-inflammatory activities”.
For “Porphyromonas gingivalis lipopolysaccharide [Pg-LPS]”, the effect on phagocytosis (phagocytosis) is listed as “suppresses phagocytosis”, the “cytotoxicity (in words)” value [1] is listed as “dose-dependent cytotoxicity” and the “ROS generation, Fluorescence intensity” value (THP-1 cells [2]) is listed as 10743.55 AU. For the same substance, the “G0/G1 phase of the cell cycle (in words)” value (THP-1 cells [3]) was “increase in the G0/G1 phase of the cell cycle”, the live cells (THP-1 cells [4]; untreated control 87.25%) was 74.40% and the “necrotic effect / Dead” value (THP-1 cells [4]; untreated control Dead 3.65 %) was 22.85%.
For cathelicidin, the LPS-neutralizing effect [5] is given as “potent LPS-neutralizing effect” and the LPS-induced apoptosis (endothelial cells) is given as “reducing LPS-induced apoptosis in endothelial cells”.
